From patent US20240043404A1 (AbbVie Inc., priority 2009, published 2024)
pEC50, pKi: −log10 of the molar value. Where two headings read alike, the source gives them in different places.

Assays:
Bcl-2 = Bcl-2 (Homo sapiens (Human), UniProt P10415); assay: Time Resolved-Fluorescence Resonance Energy Transfer (TR-FRET) Bcl-2 binding assay
Procedure: The samples are then mixed on a shaker for 1 minute and incubated for an additional 3 hours at room temperature. For each assay, the probe/antibody and protein/probe/antibody were included on each assay plate as negative and positive controls, respectively.
The samples were then mixed on a shaker for 1 minute and incubated for an additional 3 hours at room temperature. For each assay, the probe/antibody and protein/probe/antibody were included on each assay plate as negative and positive controls, respectively.

RS4;11 cells = assay: RS4;11 cell viability assay (CellTiter Glo); assay type: cell-based, human; conditions: Homo sapiens, read-out: RS4;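 further: acute lymphoblastic leukemia line RS4,11, EC50 derived from percentage of viable cells after treatment relative to untreated controls, cell killing taken as a measure of Bcl-2 inhibition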
Procedure: The acute lymphoblastic leukemia (ALL) cell line RS4;11 was used as the primary human cell line to assess the cellular activity of Bcl-2 selective agents in vitro and their efficacy in vivo.
Cell cytotoxicity EC50 values were assessed using CellTiter Glo (Promega) according to the manufacturer's recommendations. The EC50 values were determined as a percentage of viable cells following treatment compared to the untreated control cells.

[1] = RS4-11, 48 h, 50,000 cells per well, 10% human serum, 48 hours, 11 EC50 Values
[2] = Table 5, direct comparison Z=N with corresponding analogs Z=C, read-out: Bcl-2 FRET ki
[3] = RS4-11, Table 5, direct comparison Z=N with corresponding analogs Z=C, 11 EC50
[4] = GST-Bcl-2 1 nM, F-Bak peptide probe 100 nM, Tb-anti-GST 1 nM, < means below limit of detection, read-out: TR-FRET Bcl-2 Binding Ki

Sequence of Bcl-2 (P10415 whole entry): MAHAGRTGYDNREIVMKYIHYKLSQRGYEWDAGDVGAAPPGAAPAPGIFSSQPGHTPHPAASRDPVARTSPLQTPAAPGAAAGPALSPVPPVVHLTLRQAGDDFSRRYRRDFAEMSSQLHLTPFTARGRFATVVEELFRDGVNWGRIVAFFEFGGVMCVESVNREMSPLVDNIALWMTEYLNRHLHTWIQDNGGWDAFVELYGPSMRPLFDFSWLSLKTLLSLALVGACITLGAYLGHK

| SMILES | pEC50 (RS4;11 cells; [1]) | pKi (Bcl-2; [2]) | pEC50 (RS4;11 cells; [3]) | also measured |
| --- | --- | --- | --- | --- |
| CC1(C)CCC(CN2CCN(c3ccc(C(=O)NS(=O)(=O)c4ccc(OC[C@H]5CC[C@@H](N6CCOCC6)C5)c([N+](=O)[O-])c4)c(Oc4cnc5[nH]ccc5c4)c3)CC2)=C(c2ccc(Cl)cc2)C1 (relative stereo) [Example 188] | 7.79 | – | – | pKi (Bcl-2): > 11.00 |
| CN1CCC(Nc2ccc(S(=O)(=O)NC(=O)c3ccc(N4CCN(CC5=C(c6ccc(Cl)cc6)CC(C)(C)CC5)CC4)cc3Oc3cnc4[nH]ccc4c3)cc2[N+](=O)[O-])CC1 [Example 4, 4-(4-{[2-(4-chlorophenyl)-4,4-dimethylcyclohex-1-en-1-yl]methyl}piperazin-1-yl)-N-({4-[(1-methylpiperidin-4-yl)amino]-3-nitrophenyl}sulfonyl)-2-(1H-pyrrolo[2,3-b]pyridin-5-yloxy)benzamide] | 7.73 | > 11.00 | 7.72 | – |
| CC1(C)CCC(CN2CCN(c3ccc(C(=O)NS(=O)(=O)c4ccc(N[C@H]5CC[C@H](N6CCOCC6)CC5)c([N+](=O)[O-])c4)c(Oc4cnc5[nH]ccc5c4)c3)CC2)=C(c2ccc(Cl)cc2)C1 [Example 9, Trans-4-(4-{[2-(4-chlorophenyl)-4,4-dimethylcyclohex-1-en-1-yl]methyl}piperazin-1-yl)-N-({4-[(4-morpholin-4-ylcyclohexyl)amino]-3-nitrophenyl}sulfonyl)-2-(1H-pyrrolo[2,3-b]pyridin-5-yloxy)benzamide] | 7.83 | > 11.00 | 7.82 | – |
| COCCNc1ccc(S(=O)(=O)NC(=O)c2ccc(N3CCN(CC4=C(c5ccc(Cl)cc5)CC(C)(C)CC4)CC3)cc2Oc2cnc3[nH]ccc3c2)cc1[N+](=O)[O-] [Example 10, 4-(4-{[2-(4-chlorophenyl)-4,4-dimethylcyclohex-1-en-1-yl]methyl}piperazin-1-yl)-N-({4-[(2-methoxyethyl)amino]-3-nitrophenyl}sulfonyl)-2-(1H-pyrrolo[2,3-b]pyridin-5-yloxy)benzamide] | 7.28 | > 11.00 | 7.28 | – |
| CC1(C)CCC(CN2CCN(c3ccc(C(=O)NS(=O)(=O)c4ccc(OCC5COCCO5)c([N+](=O)[O-])c4)c(Oc4cnc5[nH]ccc5c4)c3)CC2)=C(c2ccc(Cl)cc2)C1 (stereo not drawn) [Example 12, 4-(4-{[2-(4-chlorophenyl)-4,4-dimethylcyclohex-1-en-1-yl]methyl}piperazin-1-yl)-N-{[4-(1,4-dioxan-2-ylmethoxy)-3-nitrophenyl]sulfonyl}-2-(1H-pyrrolo[2,3-b]pyridin-5-yloxy)benzamide] | 7.46 | > 11.00 | 7.46 | – |
| CC1(C)CCC(CN2CCN(c3ccc(C(=O)NS(=O)(=O)c4ccc(NC[C@H]5CCCOC5)c([N+](=O)[O-])c4)c(Oc4cnc5[nH]ccc5c4)c3)CC2)=C(c2ccc(Cl)cc2)C1 [Example 13, 4-(4-{[2-(4-chlorophenyl)-4,4-dimethylcyclohex-1-en-1-yl]methyl}piperazin-1-yl)-N-[(3-nitro-4-{[(3R)-tetrahydro-2H-pyran-3-ylmethyl]amino}phenyl)sulfonyl]-2-(1H-pyrrolo[2,3-b]pyridin-5-yloxy)benzamide] | 7.63 | > 11.00 | 7.64 | – |
| CC1(C)CC(c2ccc(Cl)cc2)=C(CN2CCN(c3ccc(C(=O)NS(=O)(=O)c4ccc(NCC5CCOCC5)c([N+](=O)[O-])c4)c(Oc4cnc5[nH]ccc5c4)c3)CC2)CO1 [Example 15, 4-(4-{[4-(4-chlorophenyl)-6,6-dimethyl-5,6-dihydro-2H-pyran-3-yl]methyl}piperazin-1-yl)-N-({3-nitro-4-[(tetrahydro-2H-pyran-4-ylmethyl)amino]phenyl}sulfonyl)-2-(1H-pyrrolo[2,3-b]pyridin-5-yloxy)benzamide] | 7.89 | > 11.00 | 7.89 | pKi (Bcl-2; [4]): > 11.00 |
| CC1(C)CCC(CN2CCN(c3ccc(C(=O)NS(=O)(=O)c4ccc(NC5CCN(C6CCOCC6)CC5)c([N+](=O)[O-])c4)c(Oc4ccc5[nH]ccc5c4)c3)CC2)=C(c2ccc(Cl)cc2)C1 [Example 89, 4-(4-{[2-(4-chlorophenyl)-4,4-dimethylcyclohex-1-en-1-yl]methyl}piperazin-1-yl)-2-(1H-indol-5-yloxy)-N-({3-nitro-4-[(1-tetrahydro-2H-pyran-4-ylpiperidin-4-yl)amino]phenyl}sulfonyl)benzamide] | 7.19 | – | 7.19 | pKi (Bcl-2; read-out: Bcl-2 FRET ki): 10.13 |
| CC1(C)CCC(CN2CCN(c3ccc(C(=O)NS(=O)(=O)c4ccc(OC[C@H]5CC[C@H](O)CC5)c([N+](=O)[O-])c4)c(Oc4cnc5[nH]ccc5c4)c3)CC2)=C(c2ccc(Cl)cc2)C1 [Example 120, 2-(1H-pyrrolo[2,3-b]pyridin-5-yloxy)-4-(4-((2-(4-chlorophenyl)-4,4-dimethylcyclohex-1-enyl)methyl)piperazin-1-yl)-N-(4-((trans-4-hydroxycyclohexyl)methoxy)-3-nitrophenylsulfonyl)benzamide] | 8.83 | – | – | pKi (Bcl-2; [4]): > 11.00 |
| CC1(C)CCC(CN2CCN(c3ccc(C(=O)NS(=O)(=O)c4ccc(OC[C@H]5CCN(C6COC6)C5)c([N+](=O)[O-])c4)c(Oc4cnc5[nH]ccc5c4)c3)CC2)=C(c2ccc(Cl)cc2)C1 [Example 184, 4-(4-{[2-(4-chlorophenyl)-4,4-dimethylcyclohex-1-en-1-yl]methyl}piperazin-1-yl)-N-[(3-nitro-4-{[(3S)-1-oxetan-3-ylpyrrolidin-3-yl]methoxy}phenyl)sulfonyl]-2-(1H-pyrrolo[2,3-b]pyridin-5-yloxy)benzamide] | 7.63 | – | – | pKi (Bcl-2; [4]): > 11.00 |
| CC1(C)CCC(CN2CCN(c3ccc(C(=O)NS(=O)(=O)c4ccc(OC[C@H]5CC[C@H](O)CC5)c([N+](=O)[O-])c4)c(Oc4cnc5[nH]ccc5c4)c3)CC2)=C(c2ccc(Cl)cc2)C1 [Example 196, Trans-4-(4-{[2-(4-chlorophenyl)-4,4-dimethylcyclohex-1-en-1-yl]methyl}piperazin-1-yl)-N-({4-[(4-hydroxycyclohexyl)methoxy]-3-nitrophenyl}sulfonyl)-2-(1H-pyrrolo[2,3-b]pyridin-5-yloxy)benzamide] | – | – | – | pKi (Bcl-2; [4]): > 11.00 |
| CC1(C)CCC(CN2CCN(c3ccc(C(=O)NS(=O)(=O)c4ccc(OCC5(F)CCC(N(CCC#N)C6CC6)CC5)c([N+](=O)[O-])c4)c(Oc4cnc5[nH]ccc5c4)c3)CC2)=C(c2ccc(Cl)cc2)C1 (stereo not drawn) [Example 363, 4-(4-{[2-(4-chlorophenyl)-4,4-dimethylcyclohex-1-en-1-yl]methyl}piperazin-1-yl)-N-{[4-({4-[(2-cyanoethyl)(cyclopropyl)amino]-1-fluorocyclohexyl}methoxy)-3-nitrophenyl]sulfonyl}-2-(1H-pyrrolo[2,3-b]pyridin-5-yloxy)benzamide] | 7.58 | – | – | – |
| CC1(C)CCC(CN2CCN(c3ccc(C(=O)NS(=O)(=O)c4cnc(NCC5CCOCC5)c([N+](=O)[O-])c4)c(Oc4cnc5[nH]ccc5c4)c3)CC2)=C(c2ccc(Cl)cc2)C1 [Example 364, 4-(4-{[2-(4-chlorophenyl)-4,4-dimethylcyclohex-1-en-1-yl]methyl}piperazin-1-yl)-N-({5-nitro-6-[(tetrahydro-2H-pyran-4-ylmethyl)amino]pyridin-3-yl}sulfonyl)-2-(1H-pyrrolo[2,3-b]pyridin-5-yloxy)benzamide] | 7.95 | – | – | – |
| CC1(C)CCC(CN2CCN(c3ccc(C(=O)NS(=O)(=O)c4ccc(NCC5CCC6(CC5)COC6)c([N+](=O)[O-])c4)c(Oc4cnc5[nH]ccc5c4)c3)CC2)=C(c2ccc(Cl)cc2)C1 [Example 365, 4-(4-{[2-(4-chlorophenyl)-4,4-dimethylcyclohex-1-en-1-yl]methyl}piperazin-1-yl)-N-({3-nitro-4-[(2-oxaspiro[3.5]non-7-ylmethyl)amino]phenyl}sulfonyl)-2-(1H-pyrrolo[2,3-b]pyridin-5-yloxy)benzamide] | 8.52 | – | – | – |
| CC1(C)CCC(CN2CCN(c3ccc(C(=O)NS(=O)(=O)c4ccc(NCC5CCC(C)(C#N)CC5)c([N+](=O)[O-])c4)c(Oc4cnc5[nH]ccc5c4)c3)CC2)=C(c2ccc(Cl)cc2)C1 (stereo not drawn) [Example 366, 4-(4-{[2-(4-chlorophenyl)-4,4-dimethylcyclohex-1-en-1-yl]methyl}piperazin-1-yl)-N-[(4-{[(4-cyano-4-methylcyclohexyl)methyl]amino}-3-nitrophenyl)sulfonyl]-2-(1H-pyrrolo[2,3-b]pyridin-5-yloxy)benzamide] | 7.78 | – | – | – |
| COCC1CCC(CNc2ccc(S(=O)(=O)NC(=O)c3ccc(N4CCN(CC5=C(c6ccc(Cl)cc6)CC(C)(C)CC5)CC4)cc3Oc3cnc4[nH]ccc4c3)cc2[N+](=O)[O-])CC1 (stereo not drawn) [Example 374, 4-(4-{[2-(4-chlorophenyl)-4,4-dimethylcyclohex-1-en-1-yl]methyl}piperazin-1-yl)-N-{[4-({[4-(methoxymethyl)cyclohexyl]methyl}amino)-3-nitrophenyl]sulfonyl}-2-(1H-pyrrolo[2,3-b]pyridin-5-yloxy)benzamide] | 7.81 | – | – | – |
| CC1(C)CCC(CN2CCN(c3ccc(C(=O)NS(=O)(=O)c4cnc(OCC5CCN(c6nccs6)CC5)c(Cl)c4)c(Oc4cnc5[nH]ccc5c4)c3)CC2)=C(c2ccc(Cl)cc2)C1 [Example 375, 4-(4-{[2-(4-chlorophenyl)-4,4-dimethylcyclohex-1-en-1-yl]methyl}piperazin-1-yl)-N-[(5-chloro-6-{[1-(1,3-thiazol-2-yl)piperidin-4-yl]methoxy}pyridin-3-yl)sulfonyl]-2-(1H-pyrrolo[2,3-b]pyridin-5-yloxy)benzamide] | 6.25 | – | – | – |
| COC1(C)CCC(c2ccc(Cl)cc2)=C(CN2CCN(c3ccc(C(=O)NS(=O)(=O)c4ccc(NCC5CCOCC5)c([N+](=O)[O-])c4)c(Oc4cnc5[nH]ccc5c4)c3)CC2)C1 (stereo not drawn) [Example 378, 4-(4-{[2-(4-chlorophenyl)-5-methoxy-5-methylcyclohex-1-en-1-yl]methyl}piperazin-1-yl)-N-({3-nitro-4-[(tetrahydro-2H-pyran-4-ylmethyl)amino]phenyl}sulfonyl)-2-(1H-pyrrolo[2,3-b]pyridin-5-yloxy)benzamide] | 8.17 | – | – | – |
